# In patent US8722727B2, “Antifungal agents” (Seynix, Inc., priority 2008, dated 2014):
# Target: T1, glucan synthase (GS) (Candida albicans, UniProt O13428)
# T1 construct: Extraction of GS activity from membranes was performed at a protein concentration of 5 mg/mL in extraction buffer; endogenous in cells; host or cells: Candida albicans MY1055 (membrane fraction, detergent extraction, product entrapment)
# Experiment: Glucan synthase inhibition (polymerization assay, 96-well)
# Format: biochemical
# Conditions: glucan synthase prepared from Candida albicans MY1055; 60 min incubation at 22° C.; read-out: Candida Albicans GS IC50 (ng/mL) (converted)
# Method: The in vitro evaluation of glucan synthase inhibitory activity of compounds was measured in a polymerization assay in 96-well format. Each well contained 100 μL of ^3H-UDPG at 0.5 mM (6000 to 8000 dpm/nmol), 50 mM HEPES pH 7.5 (Sigma), 10% w/v glycerol (Sigma), 1.5 mg/mL bovine serum albumin (Sigma A 9647. Lot 44H0190), 25 mM KF (Fisher), 1 mM EDTA (Gibco ULTRAPURE), 25 μM GTP-γ-S, enzyme sufficient to give 3 to 6 nmoles incorporation during the 60 min incubation at 22° C., and test compound added from wells in 3-fold serial dilutions in 100% DMSO (1 μL/well). The reaction was stopped by the addition of 100 μL of 20% trichloroacetic acid. Plates were chilled for a minimum of 10 min, and precipitated glucan collected by filtration on GF/C plates (Packard UNIFILTER®-96), washed with 5 cycles of water (about 1 mL/well each cycle) using a Packard FILTERMATE HARVESTER. 40 μL/well scintillation fluid (Packard ULTIMA GOLD TM-XR) was added and the sealed plates counted in a WALLAC BETA counter in top-counting mode at an efficiency of approximately 40%.
# Stock solutions were stored at 10 mg/mL in DMSO at −20° C. For each new enzyme preparation, the initial titration performed started at 1 mg/mL, which was prepared by making a 10-fold dilution in DMSO (5 μL to 50 μL). 40 μL of this stock was placed in column 12 of a round-bottomed 96-well microtiter plate. 40 μL DMSO was added to columns 1 to 11 in the same row and ten 3-fold serial dilutions performed, by transferring 20 μL from column 12 to column 11 etc., with 4 mixings before each transfer. No test compound was transferred to from column 2 to column 1. Duplicate aliquots of 1 μL of all 12 dilutions were then transferred to the side walls of a 96-well Bioblock 1.1 mL plate (Fisher brand) to create two rows. Graphs of the primary data were created in PRISM software (the average of two determinations) using PRISM's curve fitting program (sigmoidal dose response non-linear regression). The amount of compound required to inhibit glucan synthase activity by 50% in this assay (IC50-ng/mL) was calculated.
# Routine analysis was performed with glucan synthase (GS) prepared from Candida albicans MY1055 by the following procedure: MY1055 was grown in 10 liters YPD medium (10 g yeast extract, 20 g tryptone, 20 g glucose per liter) with vigorous shaking at 30° C., to early stationary phase. Cells were harvested by centrifugation, the pellet was washed and frozen at −70° C. until breakage. Thawed pellets were shaken with an equal volume of breakage buffer (50 mM HEPES pH 7.4, 10% glycerol, 1 mM EDTA, 1 mM PMSF, 1 mM DTT) and 4 times their weight of 0.5 mm acid washed glass beads for 2 hours at 4° C. Extent of breakage was assessed visually at 40× magnification. After low speed centrifugation to remove cell debris, the supernatant was centrifuged at 100,000×g for 60 min. to separate membranes plus ribosomes from cytoplasmic components. Membranes were further washed two additional times with breakage buffer using the same centrifugation conditions and finally suspended in breakage buffer at 25 to 30 mg/mL protein (Biorad) for storage at −70° C. Extraction of GS activity from membranes was performed at a protein concentration of 5 mg/mL in extraction buffer (50 mM NaPO4 pH 7.5, 0.1 M KCl, 0.1M Na citrate, 20% glycerol, 5 μM GTP-γ-S, 1 mM DTT, 1 mM PMSF, 3 μg/mL pepstatin) plus 0.25% W1 by gentle mixing at 4° C. for 60 min, followed by centrifugation at 100,000×g for 60 min. After centrifugation, clear supernatant was removed from a pellet consisting of a hard layer usually with small amounts of gelatinous unextracted membranes above it.
# Trapping was initiated immediately by 5-fold dilution in trapping buffer (50 mM HEPES pH 7.5, 10 mM KF, 1 mM EDTA, 2 mg/mL BSA) plus 2.5 mM UDPG and 10 μM GTP-γ-S. After incubation at 25° C. for 60 to 90 minutes, glucan was harvested by low speed centrifugation (3,000×g, 10 min). […]
# T1 sequence (O13428 1-1897): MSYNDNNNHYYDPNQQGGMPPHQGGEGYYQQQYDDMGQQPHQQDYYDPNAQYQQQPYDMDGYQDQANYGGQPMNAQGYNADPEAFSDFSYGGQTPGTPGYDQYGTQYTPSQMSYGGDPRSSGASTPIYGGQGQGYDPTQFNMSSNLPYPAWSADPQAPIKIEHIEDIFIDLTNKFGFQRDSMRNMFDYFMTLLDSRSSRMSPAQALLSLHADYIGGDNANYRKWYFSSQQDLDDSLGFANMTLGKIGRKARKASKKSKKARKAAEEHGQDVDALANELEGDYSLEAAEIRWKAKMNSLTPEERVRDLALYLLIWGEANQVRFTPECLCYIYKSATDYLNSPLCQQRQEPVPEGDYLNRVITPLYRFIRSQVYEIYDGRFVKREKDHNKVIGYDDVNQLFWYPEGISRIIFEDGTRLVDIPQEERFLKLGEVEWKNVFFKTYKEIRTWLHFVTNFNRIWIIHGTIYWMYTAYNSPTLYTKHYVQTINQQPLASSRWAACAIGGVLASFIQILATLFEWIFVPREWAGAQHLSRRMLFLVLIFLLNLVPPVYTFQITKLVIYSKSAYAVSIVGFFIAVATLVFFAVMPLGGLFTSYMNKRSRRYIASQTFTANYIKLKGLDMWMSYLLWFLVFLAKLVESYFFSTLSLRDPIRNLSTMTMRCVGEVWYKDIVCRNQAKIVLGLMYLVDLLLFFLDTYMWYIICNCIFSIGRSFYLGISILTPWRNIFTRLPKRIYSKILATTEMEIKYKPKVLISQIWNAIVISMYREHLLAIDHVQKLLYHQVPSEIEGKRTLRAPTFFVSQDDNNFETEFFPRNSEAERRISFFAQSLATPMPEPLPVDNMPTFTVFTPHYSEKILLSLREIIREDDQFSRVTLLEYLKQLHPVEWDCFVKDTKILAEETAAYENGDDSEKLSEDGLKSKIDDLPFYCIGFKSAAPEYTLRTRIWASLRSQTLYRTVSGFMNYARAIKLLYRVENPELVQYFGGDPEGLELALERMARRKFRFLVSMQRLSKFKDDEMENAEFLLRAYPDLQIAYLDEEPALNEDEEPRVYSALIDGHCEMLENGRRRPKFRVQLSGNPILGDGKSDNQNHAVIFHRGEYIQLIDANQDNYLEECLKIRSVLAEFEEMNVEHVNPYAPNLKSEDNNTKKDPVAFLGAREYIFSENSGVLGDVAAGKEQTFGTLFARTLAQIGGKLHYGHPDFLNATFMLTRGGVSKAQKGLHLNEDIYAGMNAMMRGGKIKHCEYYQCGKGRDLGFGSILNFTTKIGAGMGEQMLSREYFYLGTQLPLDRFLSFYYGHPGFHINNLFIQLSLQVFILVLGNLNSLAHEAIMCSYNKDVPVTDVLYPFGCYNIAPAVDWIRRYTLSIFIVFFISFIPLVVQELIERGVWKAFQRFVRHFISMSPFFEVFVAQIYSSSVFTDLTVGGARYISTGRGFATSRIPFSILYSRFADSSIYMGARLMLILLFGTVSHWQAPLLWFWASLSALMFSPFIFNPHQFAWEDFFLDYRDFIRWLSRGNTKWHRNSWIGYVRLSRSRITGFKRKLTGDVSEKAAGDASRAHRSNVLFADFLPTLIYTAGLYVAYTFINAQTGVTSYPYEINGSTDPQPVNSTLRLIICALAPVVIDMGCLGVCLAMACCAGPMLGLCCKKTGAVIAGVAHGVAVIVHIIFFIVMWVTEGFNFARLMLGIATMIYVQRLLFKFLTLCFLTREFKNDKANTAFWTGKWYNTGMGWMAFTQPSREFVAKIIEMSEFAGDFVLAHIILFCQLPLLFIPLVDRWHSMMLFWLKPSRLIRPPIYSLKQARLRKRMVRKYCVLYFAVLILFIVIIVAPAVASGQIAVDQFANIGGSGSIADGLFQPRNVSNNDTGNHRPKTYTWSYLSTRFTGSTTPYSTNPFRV
# T1 sequence (O42825 1-195 partner limits assumed): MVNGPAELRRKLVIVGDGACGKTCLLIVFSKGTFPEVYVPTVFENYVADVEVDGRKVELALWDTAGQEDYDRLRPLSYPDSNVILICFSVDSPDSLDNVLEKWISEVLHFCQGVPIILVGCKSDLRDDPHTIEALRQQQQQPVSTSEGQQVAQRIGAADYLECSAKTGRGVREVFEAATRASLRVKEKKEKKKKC
row,IC50 [nM],Structure (SMILES)
1,81.8,"CC(=O)Nc1nnnn1[C@@H]1C[C@@]23COC[C@](C)([C@@H]2CC[C@H]2C3=CC[C@@]3(C)[C@H](C(=O)O)[C@@](C)([C@H](C)C(C)C)CC[C@]23C)[C@H]1OC[C@](C)(N)C(C)C [Example 38A, (1S,4aR,6aS,7R,8R,10aR,10bR,12aR,14R,15R)-14-[5-(acetylamino)-1H-tetrazol-1-yl]-15-[[(2R)-2-amino-2,3-dimethylbutyl]oxy]-8-[(1R)-1,2-dimethylpropyl]-1,6,6a,7,8,9,10,10a,10b,11,12,12a-dodecahydro-1,6a,8,10a-tetramethyl-4H-1,4a-propano-2H-phenanthro[1,2-c]pyran-7-carboxylic acid]"
2,15.5,"CN[C@@](C)(CO[C@H]1[C@H](n2nnc(NC(C)=O)n2)C[C@@]23COC[C@]1(C)[C@@H]2CC[C@H]1C3=CC[C@@]2(C)[C@H](C(=O)O)[C@@](C)([C@H](C)C(C)C)CC[C@]12C)C(C)C [Example 39B, (1S,4aR,6aS,7R,8R,10aR,10bR,12aR,14R,15R)-14-[5-(acetylamino)-2H-tetrazol-2-yl]-15-[[(2R)-2,3-dimethyl-2-(methylamino)butyl]oxy]-8-[(1R)-1,2-dimethylpropyl]-1,6,6a,7,8,9,10,10a,10b,11,12,12a-dodecahydro-1,6a,8,10a-tetramethyl-4H-1,4a-propano-2H-phenanthro[1,2-c]pyran-7-carboxylic acid]"
3,199,"Cc1nnnn1[C@@H]1C[C@@]23COC[C@](C)([C@@H]2CC[C@H]2C3=CC[C@@]3(C)[C@H](C(=O)O)[C@@](C)([C@H](C)C(C)C)CC[C@]23C)[C@H]1OCCN [Example 41A, (1S,4aR,6aS,7R,8R,10aR,10bR,12aR,14R,15R)-15-(2-aminoethoxy)-8-[(1R)-1,2-dimethylpropyl]-14-(5-methyl-1H-tetrazol-1-yl)-1,6,6a,7,8,9,10,10a,10b,11,12,12a-dodecahydro-1,6a,8,10a-tetramethyl-4H-1,4a-propano-2H-phenanthro[1,2-c]pyran-7-carboxylic acid]"

# The remaining lines, values behind:
row,Structure (SMILES),IC50 [nM]
1,"CC(C)[C@@H](C)[C@@]1(C)CC[C@]2(C)[C@H]3CC[C@@H]4[C@@]5(COC[C@@]4(C)[C@@H](OC[C@H](N)C(C)(C)C)[C@H](n4nnc(N)n4)C5)C3=CC[C@@]2(C)[C@@H]1C(=O)O [Example 22, (1S,4aR,6aS,7R;8R,10aR,10bR,12aR,14R,15R)-15-[[(2R)-2-amino-3,3-dimethylbutyl]oxy]-14-(5-amino-2H-tetrazol-2-yl)-8-[(1R)-1,2-dimethylpropyl]-1,6,6a,7,8,9,10,10a,10b,11,12,12a-dodecahydro-1,6a,8,10a-tetramethyl-4H-1,4a-propano-2H-phenanthro[1,2-c]pyran-7-carboxylic acid]",6.11
2,"CCC(N)(CC)CO[C@H]1[C@H](n2nnc(N)n2)C[C@@]23COC[C@]1(C)[C@@H]2CC[C@H]1C3=CC[C@@]2(C)[C@H](C(=O)O)[C@@](C)([C@H](C)C(C)C)CC[C@]12C [Example 23, (1S,4aR,6aS,7R,8R,10aR,10bR,12aR,14R,15R)-15-(2-amino-2-ethylbutoxy)-14-(5-amino-2H-tetrazol-2-yl)-8-[(1R)-1,2-dimethylpropyl]-1,6,6a,7,8,9,10,10a,10b,11,12,12a-dodecahydro-1,6a,8,10a-tetramethyl-4H-1,4a-propano-2H-phenanthro[1,2-c]pyran-7-carboxylic acid]",7.63
3,"CC(C)[C@@H](C)[C@@]1(C)CC[C@]2(C)[C@H]3CC[C@@H]4[C@@]5(COC[C@@]4(C)[C@@H](OCCC4(N)CCCC4)[C@H](n4nnc(N)n4)C5)C3=CC[C@@]2(C)[C@@H]1C(=O)O [Example 25, (1S,4aR,6aS,7R,8R,10aR,10bR,12aR,14R,15R)-15-[2-(1-aminocyclopentyl)ethoxy]-14-(5-amino-2H-tetrazol-2-yl)-8-[(1R)-1,2-dimethylpropyl]-1,6,6a,7,8,9,10,10a,10b,11,12,12a-dodecahydro-1,6a,8,10a-tetramethyl-4H-1,4a-propano-2H-phenanthro[1,2-c]pyran-7-carboxylic acid]",40.5
4,"CNC1(CO[C@H]2[C@H](n3nnc(N)n3)C[C@@]34COC[C@]2(C)[C@@H]3CC[C@H]2C4=CC[C@@]3(C)[C@H](C(=O)O)[C@@](C)([C@H](C)C(C)C)CC[C@]23C)CCOCC1 [Example 27, (1S,4aR,6aS,7R,8R,10aR,10bR,12aR,14R,15R)-14-(5-amino-2H-tetrazol-2-yl)-8-[(1R)-1,2-dimethylpropyl]-15-[[tetrahydro-4-(methylamino)-2H-pyran-4-yl]methoxy]-1,6,6a,7,8,9,10,10a,10b,11,12,12a-dodecahydro-1,6a,8,10a-tetramethyl-4H-1,4a-propano-2H-phenanthro[1,2-c]pyran-7-carboxylic acid]",5.86
5,"CC(C)[C@@H](C)[C@@]1(C)CC[C@]2(C)[C@H]3CC[C@@H]4[C@@]5(COC[C@@]4(C)[C@@H](OCC4(N)CCSCC4)[C@H](n4nnc(N)n4)C5)C3=CC[C@@]2(C)[C@@H]1C(=O)O [Example 30, (1S,4aR,6aS,7R,8R,10aR,10bR,12aR,14R,15R)-15-[(4-aminotetrahydro-2H-thiopyran-4-yl)methoxy]-14-(5-amino-2H-tetrazol-2-yl)-8-[(1R)-1,2-dimethylpropyl]-1,6,6a,7,8,9,10,10a,10b,11,12,12a-dodecahydro-1,6a,8,10a-tetramethyl-4H-1,4a-propano-2H-phenanthro[1,2-c]pyran-7-carboxylic acid]",2.92
6,"CNC1(CO[C@H]2[C@H](n3nnc(N)n3)C[C@@]34COC[C@]2(C)[C@@H]3CC[C@H]2C4=CC[C@@]3(C)[C@H](C(=O)O)[C@@](C)([C@H](C)C(C)C)CC[C@]23C)CCCCC1 [Example 32, (1S,4aR,6aS,7R,8R,10aR,10bR,12aR,14R,15R)-14-(5-amino-2H-tetrazol-2-yl)-8-[(1R)-1,2-dimethylpropyl]-15-[[1-(methylamino)cyclohexyl]methoxy]-1,6,6a,7,8,9,10,10a,10b,11,12,12a-dodecahydro-1,6a,8,10a-tetramethyl-4H-1,4a-propano-2H-phenanthro[1,2-c]pyran-7-carboxylic acid]",11.7
7,"CC(C)[C@@H](C)[C@@]1(C)CC[C@]2(C)[C@H]3CC[C@@H]4[C@@]5(COC[C@@]4(C)[C@@H](OCCNCCCN(C)C)[C@H](n4nnc(N)n4)C5)C3=CC[C@@]2(C)[C@@H]1C(=O)O [Example 36, (1S,4aR,6aS,7R,8R,10aR,10bR,12aR,14R,15R)-14-(5-amino-2H-tetrazol-2-yl)-15-[2-[[3-(dimethylamino)propyl]amino]ethoxy]-8-[(1R)-1,2-dimethylpropyl]-1,6,6a,7,8,9,10,10a,10b,11,12,12a-dodecahydro-1,6a,8,10a-tetramethyl-4H-1,4a-propano-2H-phenanthro[1,2-c]pyran-7-carboxylic acid]",8.77
